The values below come from patent US5521160A, “Sulfuric acid esters of sugar alcohols” (Hoffmann-La Roche Inc., priority 1994, dated 1996).

Structures are written as SMILES. Structures can show the parent of a compound that is named as a salt. Where two headings read alike, the source gives them in different places.

Test [1] relates to rat smooth muscle cells. The experiment in a line: Antiproliferative activity (growth inhibition of rat smooth muscle cells, relative to heparin). Type of test: cell-based. The settings on record: 100 μg/ml, 48 hours, relative to heparin 100 μg/ml in same experiment.
Procedure: The antiproliferative activity of a substance is expressed as the ri value which is a comparative value to the corresponding activity of heparin and which was determined in cell cultures as follows: rat smooth muscle cells were applied to cell culture plates in a density of 8×10^3 cells/well (medium: DMEM with 10% FCS. Cultivation at 37° C. and 5% CO2). After 4 hours the number of adhered cells was determined and the compounds to be tested (100 μg/ml, dissolved in H2 O) were added. The controls were a) cells to which test compound was not added and b) heparin (100 μg/ml). Subsequently, the cells were incubated for 48 hours and thereafter the cell count was determined once more.
The inhibition i of the cell growth, i.e. the percent reduction in the growth rate of the cells compared to the control, was calculated from these values: [formula] the growth rate μ being calculated as [formula] in which Z is the number of cells.
Finally, ri --the relative inhibitory activity--which expresses the activity of a substance (at 100 μg/ml) in comparison to the activity of heparin in the same concentration in the same experiment, was calculated: [formula]
Test [2] concerns the target T1, thrombin (Homo sapiens, UniProt P00734).
T1 construct: purchased Roche, Basle (Thrombin Reagent)
The test is described as follows: biochemical. In kind it is biochemical.
Procedure: (§1) The blood coagulation-inhibiting activity was determined as follows:
Inhibition of Thrombin or Factor Xa in the Chromogenic Substrate Assay (Teien. et al., Thrombosis Research 10, 399-410 (1977)): The determination was effected in a Cobas-Bio centrifugal automatic spectrophotometer. The buffer solution used consisted of 50 mM Tris buffer, 180 mM NaCl, 7.5 mM EDTA Na2, 1% PEG 6000 and 0.02% Tween 80, pH 8.4. The test solution consisted of 50 μl of buffer, 30 μl of antithrombin III (1 U/ml, Kabi Diagnostica) and 20 μl of plasma which contained various concentrations of test compounds. 30 μl of sample solution and 20 μl of water with 180 μl of thrombin (1 U/ml, Thrombin Reagent Roche Basle) were added to the test cuvette in the automatic analyzer. After incubation at 37° C. for 240 seconds, 60 μl of S-2238 (H-D-Phe-Pip-Arg-NH.pNA, Kabi Diagnostica, Mondal, Sweden, 0.75 mM in water) and 20 μl of water were added. The liberation of pNA (p-nitroaniline) was followed during 60 seconds at 405 nm in 10 second intervals in comparison to water as the blank.

The target in test [3] is T2, Factor Xa (Bos taurus, UniProt P00743).
T2 sequence (P00743 41-180 limits assumed): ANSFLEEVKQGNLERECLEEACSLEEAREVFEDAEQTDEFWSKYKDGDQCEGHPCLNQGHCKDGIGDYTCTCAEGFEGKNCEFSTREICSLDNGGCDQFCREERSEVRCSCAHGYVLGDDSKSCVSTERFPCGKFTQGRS
The experiment in a line: Inhibition of Factor Xa in the chromogenic substrate assay (blood coagulation inhibition). In kind it is biochemical.
Procedure: as §1
Inhibition of Thrombin or Factor Xa in the Chromogenic Substrate Assay (Teien. et al., Thrombosis Research 10, 399-410 (1977)): The determination was effected in a Cobas-Bio centrifugal automatic spectrophotometer. The buffer solution used consisted of 50 mM Tris buffer, 180 mM NaCl, 7.5 mM EDTA Na2, 1% PEG 6000 and 0.02% Tween 80, pH 8.4. The test solution consisted of 50 μl of buffer, 30 μl of antithrombin III (1 U/ml, Kabi Diagnostica) and 20 μl of plasma which contained various concentrations of test compounds.
The inhibition of Factor Xa was measured in the same manner using a solution of Factor Xa (2.8 nkat/ml) and 2 mM S-2222 (Bz-CO-Ile-Glu-Arg-NH.pNA, Kabi Diagnostica) in water in place of thrombin or S-2238.

[4] abbreviates: pH 8.4; read-out: Anticoagulative Activity IC50 Thrombin.
Setting [5] is: chromogenic substrate S-2222, antithrombin III, plasma; read-out: Anticoagulative Activity IC50 Factor Xa.
Where [6] appears, read: chromogenic substrate S-2238, antithrombin III, plasma, pH 8.4, 37° C.; read-out: Anticoagulative Activity IC50 Thrombin.

What is called IC50 is the concentration that inhibits the measured activity by half. Turning to `O=C(NC[C@H](OS(=O)(=O)O)[C@@H](OS(=O)(=O)O)[C@H](OS(=O)(=O)O)[C@@H](COS(=O)(=O)O)OS(=O)(=O)O)Nc1ccc(NC(=O)c2ccc(C(=O)Nc3ccc(NC(=O)NC[C@H](OS(=O)(=O)O)[C@@H](OS(=O)(=O)O)[C@H](OS(=O)(=O)O)[C@@H](COS(=O)(=O)O)OS(=O)(=O)O)cc3)cc2)cc1` [Example 33, N,N'-bis-[4-[3-(2,3,4,5,6-penta-O-sulfo-D-glucit-1-yl)-ureido]-phenyl]-terephthalamide decasodium salt], the “Antiproliferative Activity ri (relative inhibitory activity compared with heparin)” value in test [1] worked out at 0.8. Besides, the 50% inhibitory concentration (IC50) in test [2] (setting [4]) and in test [3] (setting [5]) was more than 640 µM in each case.
`O=C(NC[C@H](OS(=O)(=O)O)[C@@H](OS(=O)(=O)O)[C@H](OS(=O)(=O)O)[C@@H](COS(=O)(=O)O)OS(=O)(=O)O)c1ccc2cc(C(=O)NC[C@H](OS(=O)(=O)O)[C@@H](OS(=O)(=O)O)[C@H](OS(=O)(=O)O)[C@@H](COS(=O)(=O)O)OS(=O)(=O)O)ccc2c1` [Example 1, naphthalene-2,6-dicarboxylic acid bis-(2,3,4,5,6-penta-O-sulfo-D-glucit-1-ylamide) decasodium salt]: the “Antiproliferative Activity ri (relative inhibitory activity compared with heparin)” value in test [1] stood at 0.6. Further, the half-maximal inhibitory concentration (IC50) in test [2] (setting [4]) and in test [3] (setting [5]) was more than 745 µM in each case.
On to `O=C(Nc1ccc(Cc2ccc(NC(=O)c3ccc(NC[C@H](OS(=O)(=O)O)[C@@H](OS(=O)(=O)O)[C@H](OS(=O)(=O)O)[C@@H](COS(=O)(=O)O)OS(=O)(=O)O)c([N+](=O)[O-])c3)cc2)cc1)c1ccc(NC[C@H](OS(=O)(=O)O)[C@@H](OS(=O)(=O)O)[C@H](OS(=O)(=O)O)[C@@H](COS(=O)(=O)O)OS(=O)(=O)O)c([N+](=O)[O-])c1` [Example 68, 4,4'-bis-(2,3,4,5,6-penta-O-sulfo-D-glucit-1-ylamino)-3,3'-dinitro-N,N'-(4,4'-methylene-diphenyl)-dibenzamide decasodium salt], for which, in test [1], the “Antiproliferative Activity ri (relative inhibitory activity compared with heparin)” value came to 1.1. Also, the IC50 in test [2] (read-out: Anticoagulative Activity IC50 Thrombin; chromogenic substrate S-2238, antithrombin III, plasma, pH 8.4, 37° C.) is more than 604 µM; in test [3] (read-out: Anticoagulative Activity IC50 Factor Xa; chromogenic substrate S-2222, antithrombin III, plasma), more than 604 µM.
In the case of `Cc1c(NC(=O)NC[C@H](OS(=O)(=O)O)[C@@H](OS(=O)(=O)O)[C@H](OS(=O)(=O)O)[C@@H](COS(=O)(=O)O)OS(=O)(=O)O)cccc1NC(=O)NC[C@H](OS(=O)(=O)O)[C@@H](OS(=O)(=O)O)[C@H](OS(=O)(=O)O)[C@@H](COS(=O)(=O)O)OS(=O)(=O)O` [Example 26, 3,3'-bis-(2,3,4,5,6-penta-O-sulfo-D-glucit-1-yl)-1,1'-(toluene-2,6-diyl)-diurea decasodium salt], the “Antiproliferative Activity ri (relative inhibitory activity compared with heparin)” value in test [1] was 1.5. Besides, the concentration for half-maximal inhibition (IC50) in test [2] (setting [6]) and in test [3] (setting [5]) was more than 748 µM throughout.
As to `O=C(NC[C@H](OS(=O)(=O)O)[C@@H](OS(=O)(=O)O)[C@H](OS(=O)(=O)O)[C@@H](COS(=O)(=O)O)OS(=O)(=O)O)c1ccc(/C=C\c2ccc(C(=O)NC[C@H](OS(=O)(=O)O)[C@@H](OS(=O)(=O)O)[C@H](OS(=O)(=O)O)[C@@H](COS(=O)(=O)O)OS(=O)(=O)O)cc2)cc1` [Example 3, (Z)-stilbene-4,4'-dicarboxylic acid bis-(2,3,4,5,6-penta-O-sulfo-D-glucit-1-ylamide) decasodium salt], the “Antiproliferative Activity ri (relative inhibitory activity compared with heparin)” value in test [1] stood at 1.5. Besides, the concentration for half-maximal inhibition (IC50) in test [2] (setting [6]) and in test [3] (setting [5]) was more than 717 µM throughout.
